Assay results published in patent publication US12660819B2, “Herbicidal derivatives” (SYNGENTA CROP PROTECTION AG, priority 2020, dated 2026).

Assays:
Assay type in all cases: in vivo
[1] = system: Abutilon theophrasti (ABUTH); experiment: Pre-emergence Test (glasshouse, percentage damage to the plant); conditions: 1000 g/ha unless otherwise stated, five-point scale
[2] = system: Amaranthus retoflexus (AMARE); experiment: Post-emergence Test (glasshouse, percentage damage to the plant); conditions: post-emergence spray, 1000 g/ha unless otherwise stated, evaluated after 13 days
Summary of the method: (§1)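 Percentage damage to the plant, assessed 13 days after application and scored 1–5 in 20% bands. Pots sown in standard soil received compound at 1000 g/ha unless otherwise stated, sprayed under 24/16 °C, 14 h light, 65% humidity.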

[3] = system: Abutilon theophrasti (ABUTH); experiment: as above; conditions: post-emergence spray, 1000 g/ha unless otherwise stated, evaluated after 13 days
Summary of the method: as §1

[4] = system: Zea mays (ZEAMX); experiment: as above; conditions: post-emergence spray, 1000 g/ha unless otherwise stated, evaluated after 13 days
Summary of the method: (§2)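 Compound formulated in 50:50 acetone/water with 0.5% Tween 20 was diluted to an aqueous spray and applied at 1000 g/ha, unless otherwise stated, onto sown pots. Evaluation after 13 days gave percentage damage, banded into a 1–5 score.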

[5] = system: Ipomoea hederacea (IPOHE); experiment: as above; conditions: post-emergence spray, 1000 g/ha unless otherwise stated, evaluated after 13 days
Summary of the method: as §2

[6] = system: Setaria faberi (SETFA); experiment: as above; conditions: post-emergence spray, 1000 g/ha unless otherwise stated, evaluated after 13 days
Summary of the method: as §2

[7] = system: Echinochloa crus-galli (ECHCG); experiment: as above; conditions: post-emergence spray, 1000 g/ha unless otherwise stated, evaluated after 13 days
Summary of the method: as §1

[8] = system: Setaria faberi (SETFA); experiment: Pre-emergence Test (glasshouse, percentage damage to the plant); conditions: 1000 g/ha unless otherwise stated, five-point scale
[9] = system: Echinochloa crus-galli (ECHCG); experiment: as above; conditions: 1000 g/ha unless otherwise stated, five-point scale
[10] = system: Amaranthus retoflexus (AMARE); experiment: as above; conditions: 1000 g/ha unless otherwise stated, five-point scale
[11] = system: Zea mays (ZEAMX); experiment: as above; conditions: 1000 g/ha unless otherwise stated, five-point scale
[12] = system: Ipomoea hederacea (IPOHE); experiment: as above; conditions: 1000 g/ha unless otherwise stated, five-point scale

Row | SMILES | percentage damage to the plant, ABUTH [1] | Post-emergence Test AMARE, percentage damage to the plant (five-point scale) [2] | Post-emergence Test ABUTH, percentage damage to the plant (five-point scale) [3] | Post-emergence Test ZEAMX, percentage damage to the plant (five-point scale) [4] | Post-emergence Test IPOHE, percentage damage to the plant (five-point scale) [5] | Post-emergence Test SETFA, percentage damage to the plant (five-point scale) [6] | Post-emergence Test ECHCG, percentage damage to the plant (five-point scale) [7] | percentage damage to the plant, SETFA [8] | percentage damage to the plant, ECHCG [9] | percentage damage to the plant, AMARE [10] | percentage damage to the plant, ZEAMX [11] | percentage damage to the plant, IPOHE [12]
1 | CCn1c(C)c(-c2ccc(F)c(OCC(F)(F)F)c2)c(=O)c(C(=O)O)c1-c1ccc(Cl)c(Cl)c1 [Compound 105, 2-(3,4-dichlorophenyl)-1-ethyl-5-[4-fluoro-3-(2,2,2-trifluoroethoxy)phenyl]-6-methyl-4-oxo-pyridine-3-carboxylic acid] | 1 (1=0-20%) | 2 (2=21-40%) | 2 (2=21-40%) | 2 (2=21-40%) | 1 (1=0-20%) | 4 (4=61-80%) | 3 (3=41-60%) | 4 (4=61-80%) | 2 (2=21-40%) | 3 (3=41-60%) | 1 (1=0-20%) | 1 (1=0-20%)
2 | CCn1c(C)c(-c2cc(C)c(OC)c(C)c2)c(=O)c(C(=O)O)c1-c1ccc(Cl)c(Cl)c1 [Compound 71, 2-(3,4-dichlorophenyl)-1-ethyl-5-(4-methoxy-3,5-dimethyl-phenyl)-6-methyl-4-oxo-pyridine-3-carboxylic acid] | 1 (1=0-20%) | 1 (1=0-20%) | 2 (2=21-40%) | 1 (1=0-20%) | 1 (1=0-20%) | 1 (1=0-20%) | 1 (1=0-20%) | 2 (2=21-40%) | 1 (1=0-20%) | 2 (2=21-40%) | 1 (1=0-20%) | 1 (1=0-20%)
3 | CCOc1cc(-c2c(C)n(CC)c(-c3ccc(Cl)c(Cl)c3)c(C(=O)O)c2=O)ccc1C#N [Compound 107, 5-(4-cyano-3-ethoxy-phenyl)-2-(3,4-dichlorophenyl)-1-ethyl-6-methyl-4-oxo-pyridine-3-carboxylic acid] | 1 (1=0-20%) | 4 (4=61-80%) | 3 (3=41-60%) | 2 (2=21-40%) | 3 (3=41-60%) | 2 (2=21-40%) | 2 (2=21-40%) | 5 (5=81-100%) | 4 (4=61-80%) | 4 (4=61-80%) | 1 (1=0-20%) | 1 (1=0-20%)
4 | CCn1c(C)c(-c2cc(C)cc(C(F)(F)F)c2)c(=O)c(C(=O)O)c1-c1ccc(Cl)c(Cl)c1 [Compound 67, 2-(3,4-dichlorophenyl)-1-ethyl-6-methyl-5-[3-methyl-5-(trifluoromethyl)phenyl]-4-oxo-pyridine-3-carboxylic acid] | 1 (1=0-20%) | 1 (1=0-20%) | 2 (2=21-40%) | 1 (1=0-20%) | 1 (1=0-20%) | 1 (1=0-20%) | 1 (1=0-20%) | 1 (1=0-20%) | 1 (1=0-20%) | 1 (1=0-20%) | 1 (1=0-20%) | 1 (1=0-20%)
